Patent publication US20220402935A1, “HETEROCYCLIC COMPOUND” (FIMECS, INC., priority 2019, published 2022)

Molecular target: T1, IRAK-M (Homo sapiens, UniProt Q9Y616)
T1 sequence (Q9Y616 1-596): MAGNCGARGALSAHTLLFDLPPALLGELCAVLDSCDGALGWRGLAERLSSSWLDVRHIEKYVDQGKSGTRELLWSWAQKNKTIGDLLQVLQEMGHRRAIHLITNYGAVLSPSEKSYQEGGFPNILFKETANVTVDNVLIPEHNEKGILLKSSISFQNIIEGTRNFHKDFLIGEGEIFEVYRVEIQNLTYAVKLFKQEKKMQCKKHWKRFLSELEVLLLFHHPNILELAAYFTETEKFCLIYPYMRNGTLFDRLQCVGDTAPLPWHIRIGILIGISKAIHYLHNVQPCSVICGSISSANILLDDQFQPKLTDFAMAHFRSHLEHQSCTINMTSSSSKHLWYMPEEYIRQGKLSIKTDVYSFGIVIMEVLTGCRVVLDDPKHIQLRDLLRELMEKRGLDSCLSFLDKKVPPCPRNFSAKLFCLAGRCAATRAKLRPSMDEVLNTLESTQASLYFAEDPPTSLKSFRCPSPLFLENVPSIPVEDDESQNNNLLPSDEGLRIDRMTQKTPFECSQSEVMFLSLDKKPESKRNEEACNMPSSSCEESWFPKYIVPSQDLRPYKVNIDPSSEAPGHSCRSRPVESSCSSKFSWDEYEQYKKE
Test: IRAK-M binding inhibitory activity (KINOMEscan active site-dependent competitive assay)
Set-up: purchased Eurofins Discover X
Details: concentration of the test compound 1 μM; first symbol of cell; read-out: IRAK-M binding inhibition activity % Ctrl
Method: IRAK-M binding inhibitory activity was evaluated using active site-dependent competitive assay KINOMEscan® provided by Eurofins Discover X (Goldstein, D. M. et al. High-throughput kinase profiling as a platform for drug discovery. Nat. Rev. Drug Discovery. 7, 391-397 (2008)). IRAK-M binding inhibitory activity of the test compound was evaluated. […] The “% Ctrl” is calculated by the following formula.
(test compound signal−positive control compound signal)/(negative control compound signal−positive control compound signal)×100
Negative control compound=DMSO (100 Ctrl)
Positive control compound=control compound (0%×Ctrl)

| remaining binding at 1 µM | SMILES |
| --- | --- |
| < 25% | O=S(=O)(c1ccccc1Oc1ccc(F)cc1)N1CCC(Oc2ncnc3ccsc23)CC1 [Ref. example 48, 4-((1-((2-(4-fluorophenoxy)phenyl)sulfonyl)piperidin-4-yl)oxy)thieno[3,2-d]pyrimidine] |
| 25 to 50% | O=S(=O)(c1ccccc1F)N1CCC(Oc2ncnc3ccsc23)CC1 [Ref. example 49, 4-((1-((2-fluorophenyl)sulfonyl)piperidin-4-yl)oxy)thieno[3,2-d]pyrimidine] |
| 25 to 50% | O=S(=O)(c1ccccc1OC(F)(F)F)N1CCC(Oc2ncnc3ccsc23)CC1 [Ref. example 50, 4-((1-((2-(trifluoromethoxy)phenyl)sulfonyl)piperidin-4-yl)oxy)thieno[3,2-d]pyrimidine] |
| 25 to 50% | COc1ccc(S(=O)(=O)N2CCC(Oc3ncnc4ccsc34)CC2)cc1 [Ref. example 51, 4-((1-((4-methoxyphenyl)sulfonyl)piperidin-4-yl)oxy)thieno[3,2-d]pyrimidine] |
| < 25% | O=S(=O)(c1ccc(Cl)cc1)N1CCC(Oc2ncnc3ccsc23)CC1 [Ref. example 52, 4-((1-((4-chlorophenyl)sulfonyl)piperidin-4-yl)oxy)thieno[3,2-d]pyrimidine] |
| 25 to 50% | O=S(=O)(c1ccc(F)cc1)N1CCC(Oc2ncnc3ccsc23)CC1 [Ref. example 53, 4-((1-((4-fluorophenyl)sulfonyl)piperidin-4-yl)oxy)thieno[3,2-d]pyrimidine] |
| 25 to 50% | COc1cccc(S(=O)(=O)N2CCC(Oc3ncnc4ccsc34)CC2)c1 [Ref. example 54, 4-((1-((3-methoxyphenyl)sulfonyl)piperidin-4-yl)oxy)thieno[3,2-d]pyrimidine] |
| 25 to 50% | Cc1ccc(S(=O)(=O)N2CCC(Oc3ncnc4ccsc34)CC2)cc1 [Ref. example 55, 4-((1-(4-methylbenzenesulfonyl)piperidin-4-yl)oxy)thieno[3,2-d]pyrimidine] |
| 25 to 50% | O=S(=O)(c1cccc(F)c1)N1CCC(Oc2ncnc3ccsc23)CC1 [Ref. example 56, 4-((1-((3-fluorophenyl)sulfonyl)piperidin-4-yl)oxy)thieno[3,2-d]pyrimidine] |
| 25 to 50% | O=S(=O)(c1cccc(Cl)c1)N1CCC(Oc2ncnc3ccsc23)CC1 [Ref. example 57, 4-((1-((3-chlorophenyl)sulfonyl)piperidin-4-yl)oxy)thieno[3,2-d]pyrimidine] |
| 25 to 50% | O=S(=O)(c1cccnc1)N1CCC(Oc2ncnc3ccsc23)CC1 [Ref. example 58, 4-((1-(pyridin-3-ylsulfonyl)piperidin-4-yl)oxy)thieno[3,2-d]pyrimidine] |
| 25 to 50% | O=S(=O)(c1cnn(Cc2ccccc2)c1)N1CCC(Oc2ncnc3ccsc23)CC1 [Ref. example 59, 4-((1-((1-benzyl-1H-pyrazol-4-yl)sulfonyl)piperidin-4-yl)oxy)thieno[3,2-d]pyrimidine] |
| 25 to 50% | COc1ccc(S(=O)(=O)N2CCC(Oc3ncnc4ccsc34)CC2)cn1 [Ref. example 60, 4-((1-((6-methoxypyridin-3-yl)sulfonyl)piperidin-4-yl)oxy)thieno[3,2-d]pyrimidine] |
| ≥ 75% | Cc1cnn(C)c1S(=O)(=O)N1CCC(Oc2ncnc3ccsc23)CC1 [Ref. example 61, 4-((1-((1,4-dimethyl-1H-pyrazol-5-yl)sulfonyl)piperidin-4-yl)oxy)thieno[3,2-d]pyrimidine] |
| 25 to 50% | CC(C)CS(=O)(=O)N1CCC(Oc2ncnc3ccsc23)CC1 [Ref. example 62, 4-((1-(isobutylsulfonyl)piperidin-4-yl)oxy)thieno[3,2-d]pyrimidine] |
| < 25% | O=S(=O)(CCc1ccccc1)N1CCC(Oc2ncnc3ccsc23)CC1 [Ref. example 63, 4-((1-(phenethylsulfonyl)piperidin-4-yl)oxy)thieno[3,2-d]pyrimidine] |
| < 25% | O=S(=O)(c1cccc(Oc2ccccc2)c1)N1CCC(Oc2ncnc3ccsc23)CC1 [Ref. example 64, 4-((1-((3-phenoxyphenyl)sulfonyl)piperidin-4-yl)oxy)thieno[3,2-d]pyrimidine] |

The remaining lines, values behind:

| SMILES | remaining binding at 1 µM |
| --- | --- |
| Ic1cc2ncnc(OC3CCOCC3)c2s1 [Ref. example 34, 6-iodo-4-((tetrahydro-2H-pyran-4-yl)oxy)thieno[3,2-d]pyrimidine] | ≥ 75% |
| Ic1cc2ncnc(OC3CCSCC3)c2s1 [Ref. example 35, 6-iodo-4-((tetrahydro-2H-thiopyran-4-yl)oxy)thieno[3,2-d]pyrimidine] | ≥ 75% |
| CN1CCC(Oc2ncnc3cc(I)sc23)CC1 [Ref. example 36, 6-iodo-4-((1-methylpiperidin-4-yl)oxy)thieno[3,2-d]pyrimidine] | ≥ 75% |
| O=S1(=O)CCC(Oc2ncnc3cc(I)sc23)CC1 [Ref. example 37, 4-((6-iodothieno[3,2-d]pyrimidin-4-yl)oxy)tetrahydro-2H-thiopyran 1,1-dioxide] | ≥ 75% |
| O=S(=O)(c1c(F)cccc1F)N1CCC(Oc2ncnc3ccsc23)CC1 [Ref. example 38, 4-((1-((2,6-difluorophenyl)sulfonyl)piperidin-4-yl)oxy)thieno[3,2-d]pyrimidine] | 25 to 50% |
| CS(=O)(=O)N1CCC(Oc2ncnc3ccsc23)CC1 [Ref. example 39, 4-((1-(methylsulfonyl)piperidin-4-yl)oxy)thieno[3,2-d]pyrimidine] | 50 to 75% |
| COCCS(=O)(=O)N1CCC(Oc2ncnc3ccsc23)CC1 [Ref. example 40, 4-((1-((2-methoxyethyl)sulfonyl)piperidin-4-yl)oxy)thieno[3,2-d]pyrimidine] | 25 to 50% |
| O=S(=O)(Cc1ccccc1)N1CCC(Oc2ncnc3ccsc23)CC1 [Ref. example 41, 4-((1-(benzylsulfonyl)piperidin-4-yl)oxy)thieno[3,2-d]pyrimidine] | 25 to 50% |
| CC(C)(C)OC(=O)N1CCC(CS(=O)(=O)N2CCC(Oc3ncnc4ccsc34)CC2)CC1 [Ref. example 42, tert-butyl 4-(((4-(thieno[3,2-d]pyrimidin-4-yloxy)piperidin-1-yl)sulfonyl)methyl)piperidine-1-carboxylate] | 50 to 75% |
| CCOC(=O)CCS(=O)(=O)N1CCC(Oc2ncnc3ccsc23)CC1 [Ref. example 43, ethyl 3-((4-(thieno[3,2-d]pyrimidin-4-yloxy)piperidin-1-yl)sulfonyl)propanoate] | 50 to 75% |
| O=S(=O)(C1CC1)N1CCC(Oc2ncnc3ccsc23)CC1 [Ref. example 44, 4-((1-(cyclopropylsulfonyl)piperidin-4-yl)oxy)thieno[3,2-d]pyrimidine] | 25 to 50% |
| O=S(=O)(c1ccccc1Cl)N1CCC(Oc2ncnc3ccsc23)CC1 [Ref. example 45, 4-((1-((2-chlorophenyl)sulfonyl)piperidin-4-yl)oxy)thieno[3,2-d]pyrimidine] | < 25% |
| COc1ccccc1S(=O)(=O)N1CCC(Oc2ncnc3ccsc23)CC1 [Ref. example 46, 4-((1-((2-methoxyphenyl)sulfonyl)piperidin-4-yl)oxy)thieno[3,2-d]pyrimidine] | < 25% |
| Cc1ccccc1S(=O)(=O)N1CCC(Oc2ncnc3ccsc23)CC1 [Ref. example 47, 4-((1-(o-tolylsulfonyl)piperidin-4-yl)oxy)thieno[3,2-d]pyrimidine] | < 25% |
